Data as given in ChEMBL document CHEMBL5729147, “Inhibitors of plasma kallikrein and uses thereof” (2022).
pEC50: −log10 of the molar value.

Target: Plasma kallikrein (Homo sapiens, UniProt P03952)
Test: Inhibitory Activity Assay: Example compounds were evaluated for inhibition of the human activated kallikrein enzyme in two formats of an assay employing a fluorogenic peptide substrate. In one assay format, the concentrations of reagents were as follows: 20 mM Tris pH 7.5, 1 mM EDTA, 150 mM sodium chloride, 0.1% PEG-400, 0.1% Triton X-100, 500 pM activated kallikrein enzyme, 300 uM Pro-Phe-Arg-7-amido-4-methylcoumarin substrate. Prior to reaction initiation with substrate, enzyme and inhibitors were preincubated for 30 min at RT. After initiation with substrate, reactions were incubated for 10 min at RT and fluorescence emission at 460 nm from 380 nm excitation measured with a microplate reader. In another assay format, the concentrations of reagents were as follows: 20 mM Tris pH 7.5, 1 mM EDTA, 150 mM sodium chloride, 0.1% PEG-400, 0.1% Triton X-100, 5 pM activated kallikrein enzyme, 300 uM Pro-Phe-Arg-7-amido-4-methylcoumarin substrate. Prior to reaction initiation with substrate, enzyme and inhibitors were preincubated for 30 min at RT. After initiation with substrate, reactions were incubated for 18 h at RT and fluorescence emission at 460 nm from 380 nm excitation measured with a microplate reader.

Sequence of Plasma kallikrein (P03952 20-390 limits assumed): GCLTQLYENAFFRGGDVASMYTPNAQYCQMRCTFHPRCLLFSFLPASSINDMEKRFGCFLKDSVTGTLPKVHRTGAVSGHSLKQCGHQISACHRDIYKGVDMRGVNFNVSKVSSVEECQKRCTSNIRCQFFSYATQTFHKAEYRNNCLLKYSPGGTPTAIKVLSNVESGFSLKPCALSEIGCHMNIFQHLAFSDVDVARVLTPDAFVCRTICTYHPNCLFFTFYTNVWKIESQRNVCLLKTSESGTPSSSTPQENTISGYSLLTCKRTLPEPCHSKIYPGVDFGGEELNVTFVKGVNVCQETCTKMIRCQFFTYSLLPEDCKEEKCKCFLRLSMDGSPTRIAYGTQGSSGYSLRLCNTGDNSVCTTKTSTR
Sequence of Plasma kallikrein (P03952 391-638 limits assumed): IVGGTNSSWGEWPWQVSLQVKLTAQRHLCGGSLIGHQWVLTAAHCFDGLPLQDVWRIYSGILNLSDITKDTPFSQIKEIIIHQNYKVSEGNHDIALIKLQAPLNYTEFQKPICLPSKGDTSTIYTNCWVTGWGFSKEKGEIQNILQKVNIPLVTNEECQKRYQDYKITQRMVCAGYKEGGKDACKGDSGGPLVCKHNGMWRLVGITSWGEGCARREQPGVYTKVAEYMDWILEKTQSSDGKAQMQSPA

pEC50: > 9.00
SMILES: O=C(NCc1ncn2ccc(Cl)cc12)c1cnn(Cc2cc3cc(C4CC4)ccn3n2)c1
